Data reported in publication PMC5732773, “Metabolism, pharmacokinetics, and bioavailability of ZB716, a Steroidal Selective Estrogen Receptor Downregulator (SERD)” (Oncotarget, 2017).
Where two headings read alike, the source gives them in different places. Blank lines part the entries; values can stand above or below the compound they belong to.

Experiments:
[1] = system: UGT1A1, -1A3, -1A4, and -1A8; details: predominant site 3-hydroxyl; cited from earlier work
[2] = Sulfation in rat liver cytosol with PAPS
Method: Sulfate conjugation is enabled by sulfotransferases in the presence of the cofactor 3'-phosphoadenosine-5'-phosphosulfate (PAPS).
The pre-incubation solution was prepared by adding 13.5 μL 1 M pH=7.5 Tris-HCl buffer, 247.5 μL water, 6 μL 1 mM 3'-Phosphoadenosine-5'-phosphosulfate (PAPS) from R&D Systems, 30 μL (10 mg/mL) cytosolic protein from Corning Gentest into a 1.5 mL microcentrifuge. The mixtures were incubated at 37°C for 5 min in an incubator. Then 3 μL of 10 mM ZB716 was added, mixed, and incubated at 37°C for 60 min in the incubator. After incubation, 300 μL MeOH was added to terminate the reaction. The final mixture was then -centrifuged at 10,000×g for 4 min at 4 °C. The supernatant was analyzed by the UHPLC-Q-Exactive instrument.
The Q-Exactive mass spectrometer was coupled to a UHPLC ultimate 3000 (Dionex) using a C-18 column (1.8 μm, 2.1 mm x 50 mm). The gradient started from 30% mobile phase B (acetonitrile with 0.05% formic acid) for 1 min, increased to 100% B in 4.5 min, held for 5 min, then decreased back to 30% B and held for 5 min. Mobile phase A was water with 0.05% formic acid. The flow rate was controlled at 0.3 mL/min. PRM mode was used to obtain the fragment patterns for metabolites with the setting of MS2 resolution of 17500, AGC target of 1e5, maximum IJ of 100 ms, NCE setting of 35. […]

[3] = design: method as in PMID 12490735; details: second line therapy in the metastatic setting; cited from earlier work
[4] = Metabolism and pharmacokinetics of ZB716 in rat plasma after oral dosing
Method: The same PRM approach was used to identify the metabolites of ZB716 in rat plasma collected at various time points after a single oral dose of 10 mg/kg. […] The pharmacokinetics parameters were calculated using a noncompartment extravascular model (Table 3).
Female Sprague-Dawley rats, weighing between 350 and 400 g (Charles River Laboratories, Portage, MI), were used for this study on ZB716. Oral gavages containing ZB716 were formulated in 5% dimethyl sulfoxide (DMSO), 40% polyethylene glycol 400, and 55% saline. Rats were housed in metabolic cages for collection of urine and feces samples after oral administration of ZB716 at a dose of 5 or 10 mg/kg. […] Urine and feces were collected for the durations of 0-1h, 1-3h, 3-6h, 6-8h, 8-24h, 24-48h, 48-72h, 72-96h, and 96-120 h after drug administration. Blood samples were collected from the lateral tail vein of the rats at 5 min, 15 min, 30 min, 1 h, 3 h, 6 h, 8 h, 24 h, and 48 h time points after drug administration. Rat blood was collected with a capillary into 1.5 mL microcentrifuge tubes containing 0.01 mL of 10 % EDTA anticoagulant. Plasma was then separated from cell pellets by centrifugation in a refrigerated centrifuge at 4 °C and transferred to a separate tube. Plasma samples were frozen at -80 °C until analysis.
Plasma samples (100 μL) were extracted using a modified Folch method for lipid extraction. Internal standard (10 μL 0.5 ng/μL trans-tamoxifen-13C2,15N in methanol), methanol (0.5 mL) and chloroform (1 mL) were added to each plasma sample. The mixtures were stored at −20 °C overnight. Samples were sonicated for 10 min and then centrifuged with a Thermo Scientific Heraeus Megafuge16 centrifuge. The top liquid layer was transferred to another test tube. The bottom residual layer was washed with 0.5 mL of chloroform/methanol (2:1), centrifuged, and the top layer was transferred and combined with the previous top layer. The mixture was dried out with nitrogen at room-temperature and re-suspended in 100 μL of HPLC grade methanol for injection.
(§1) The Q-Exactive mass spectrometer was coupled to a UHPLC ultimate 3000 (Dionex) using a C-18 column (1.8 μm, 2.1 mm x 50 mm). The gradient started from 30% mobile phase B (acetonitrile with 0.05% formic acid) for 1 min, increased to 100% B in 4.5 min, held for 5 min, then decreased back to 30% B and held for 5 min. Mobile phase A was water with 0.05% formic acid. The flow rate was controlled at 0.3 mL/min. PRM mode was used to obtain the fragment patterns for metabolites with the setting of MS2 resolution of 17500, AGC target of 1e5, maximum IJ of 100 ms, NCE setting of 35. The heated ESI probe setting was set as sheath gas at 30 psi, auxiliary gas at 8 psi, spray voltage at 2500V, capillary temperature at 280°C, S-lens RF level at 50, and auxiliary gas heater temperature at 300°C.
(§2) Concentrated stock solutions of ZB716 and fulvestrant were prepared at 1 mM in methanol. The stock solution of the internal standard (trans-tamoxifen-13C2,15N) was prepared at 1000 ng/μL in methanol. The above stock solutions were kept at -20°C until use. The working solutions of ZB716 and fulvestrant were prepared at 100 μM in methanol. The working solution of the internal standard trans-tamoxifen-13C2, 15N was prepared at 5 ng/μL and 0.5 ng/ μL in methanol, respectively. Working solutions at various concentrations were prepared by diluting their corresponding stock solution with methanol. Calibration standards quality control solutions were prepared over a range of five orders of magnitude.

[5] = design: method as in PMID 27529700, PMID 29467940; details: cited from earlier work
[6] = Glucuronidation in liver microsomes with UGT reaction mix (UDPGA); details: fulvestrant incubated with liver microsomes and UDPGA
Method: The pre-incubation solution was prepared by adding 205.5 μL water, 24 μL of UGT Reaction Mix solution A, 60μL of UGT Reaction Mix solution B, 7.5 μL rat liver microsomes from Corning Gentest into a 1.5 mL microcentrifuge. The mixtures were incubated at 37°C for 5 min in an incubator. Then 3 μL of 10mM ZB716 was added, mixed, and incubated at 37°C for 60 min in the incubator. After incubation, 300 μL MeOH was added to terminate the reaction. The final mixture was then centrifuged at 10,000× g for 4 min at 4 °C. The supernatant was analyzed by the UHPLC-Q-Exactive instrument.
as §1

[7] = ZB716 and metabolites in rat feces after oral dosing; details: for share measured in feces after 72 hours: oral ZB716, after 72 h
Method: (§3) Female Sprague-Dawley rats, weighing between 350 and 400 g (Charles River Laboratories, Portage, MI), were used for this study on ZB716. Oral gavages containing ZB716 were formulated in 5% dimethyl sulfoxide (DMSO), 40% polyethylene glycol 400, and 55% saline. Rats were housed in metabolic cages for collection of urine and feces samples after oral administration of ZB716 at a dose of 5 or 10 mg/kg. […] Urine and feces were collected for the durations of 0-1h, 1-3h, 3-6h, 6-8h, 8-24h, 24-48h, 48-72h, 72-96h, and 96-120 h after drug administration.
The internal standard of trans-tamoxifen-13C2,15N (0.5 ng/μL in methanol) was added to the feces samples at 10 ng/g feces based on the weight of the feces collected. Feces samples were homogenized with a Power Gen 125 homogenizer (Fisher Scientific) in the mixture of chloroform/methanol (2:1, v:v) and stored at -20 °C overnight. After sonicating for 30 min, the samples were centrifuged with a Heraeus Megafuge16R centrifuge at 3000 RPM. The supernatant was dried with nitrogen gas at room temperature and resuspended with corresponding amount of methanol (200 μL methanol/g feces) for injection on the UHPLC-Q-Exactive instrument.
as §1
Concentrated stock solutions of ZB716 and fulvestrant were prepared at 1 mM in methanol. The stock solution of the internal standard (trans-tamoxifen-13C2,15N) was prepared at 1000 ng/μL in methanol.

[8] = Oxidative metabolism of ZB716 in rat liver microsomes with NADPH; details: ZB716 with rat liver microsome and NADPH, 1 hour
Method: By incubating ZB716 with rat liver microsome in the presence of NADPH for 1 hour, the cytochrome P450 enzymes in the microsomes were allowed to oxidize ZB716 under aerobic conditions.
NADPH solution A contains NADP+ and Glucose 6-phosphate. NADPH solution B contains Glucose-6-phosphate dehydrogenase, which is necessary for NADPH regeneration. The pre-incubation solution was prepared by adding 30 μL of potassium phosphate buffer (pH 7.4; 10x), 241.5 μL water, 15μL of NADPH solution A, 3 μL of NADPH solution B, and 7.5 μL rat liver microsomes from Corning Gentest into a 1.5 mL microcentrifuge tube. The mixtures were incubated at 37°C for 5 min in an incubator. Then 3 μL of 10 mM ZB716 was added, mixed, and incubated at 37°C for 60 min in the incubator. After incubation, 300 μL MeOH was added to terminate the reaction. The final mixture was then centrifuged at 10,000×g for 4 min at 4°C. The supernatant was analyzed by UHPLC-HRMS (Thermo Q-Exactive).
The Q-Exactive mass spectrometer was coupled to a UHPLC ultimate 3000 (Dionex) using a C-18 column (1.8 μm, 2.1 mm x 50 mm). The gradient started from 30% mobile phase B (acetonitrile with 0.05% formic acid) for 1 min, increased to 100% B in 4.5 min, held for 5 min, then decreased back to 30% B and held for 5 min. Mobile phase A was water with 0.05% formic acid. The flow rate was controlled at 0.3 mL/min. […]

[9] = ZB716 and metabolites in rat urine after oral dosing; details: for share in urine accounted for in urinary excretion 72 hours after oral dosage: oral ZB716, after 72 h
From the text: Urine samples were subjected to the same HPLC-MS/MS analysis to identify ZB716 and any possible metabolites over a time course post oral administration. […] Again, quantitation was only possible with ZB716 and fulvestrant for which standard calibration curves were established.
as §3
Urine samples were thawed at room temperature and vortaxed. 200 μL of the sample was transferred to a 1.5 mL Eppendorf microcentrifuge tube followed by adding 10 μL of the 0.5 ng/μL trans-tamoxifen-13C2,15N in methanol solution and 200 μL methanol. After Vortaxing and centrifuging, the sample was injected into the UHPLC-Q-Exactive instrument for analysis.
as §1, §2

[10] = female, Sprague-Dawley, rat, plasma, po, 10 mg/kg

Structure (SMILES): CC12CCC3c4ccc(O)cc4CC(CCCCCCCCC[S+]([O-])CCCC(F)(F)C(F)(F)F)C3C1CCC2OC1OC(C(=O)O)C(O)C(O)C1O (stereo not drawn) [FU-17-glucuronide]
share of fulvestrant glucuronidation products [1]: 5-10%

site of sulfation ([2]; fulvestrant incubated with rat liver cytosol): predominantly at 3-position
detected in rat plasma ([4]; rat plasma after single oral dose of ZB716 10 mg/kg, + detected, - not detected): identified
site of glucuronidation [6]: primarily at 3-OH
detected in rat feces ([7]; rat feces after single oral dose of ZB716, + detected, - not detected): detected
share measured in feces after 72 hours ([7]; rat): Less than 1%
fulvestrant excreted in feces before 72 h ([7]; rat, oral ZB716, metabolite fulvestrant, before 72 h): 69.2%
oxidative metabolite of ZB716 identified in incubation mixture [8]: identified
detected in rat urine ([9]; rat urine after oral administration of ZB716, + detected, - not detected): detected
share in urine accounted for in urinary excretion 72 hours after oral dosage ([9]; rat): less than 1%
share of all fulvestrant found in urine excreted in the first 48 hours ([9]; rat, oral ZB716, metabolite fulvestrant, first 48 h): 97.6%
Structure (SMILES): C[C@]12CC[C@@H]3c4ccc(O)cc4C[C@@H](CCCCCCCCC[S+]([O-])CCCC(F)(F)C(F)(F)F)[C@H]3[C@@H]1CC[C@@H]2O (stereo partly drawn) [Fulvestrant, reference compound]
clinical response rate [3]: below 20%
peak plasma concentration ([5]; animals, similar dosage via s.c. injection): 20 ng/mL

number of sulfate conjugation products observed ([2]; ZB716 with rat liver cytosol and PAPS): three
AUC(0-t) [4, 10]: 1300 ng·h/mL
MRT inf [4, 10]: 18.4 h
Tmax [4, 10]: 2 h
concentration at 1 h [4, 10]: 130 ng/mL
concentration at 4 h [4, 10]: 87.1 ng/mL
concentration at 8 h [4, 10]: 26.4 ng/mL
concentration at 48 h [4, 10]: 6.91 ng/mL
k el [4, 10]: 1.11e-05 s⁻¹
share of ZB716 metabolized to fulvestrant ([4]; in vivo, observed in mice (ref 27-28) and again in rats in this study): 10-30%
AUC 0-inf_obs ([4]; rat, oral 10 mg/kg): 1451.82 ng·h/mL
Cmax ([4]; rat, oral 10 mg/kg): 158.12 ng/mL
Vz/Fobs (apparent volume of distribution during terminal phase) ([4]; rat, oral 10 mg/kg): 13.97 (mg/kg)/(ng/mL)
t1/2 ([4]; rat, oral 10 mg/kg, noncompartment extravascular model): 17.03 h
loss of plasma concentration from 2 h to 4 h ([4]; rat, single oral dose 10 mg/kg, within 2 hours after peak): 44.9%
share measured in feces after 72 hours ([7]; rat): Less than 1%
share of total ZB716 present in feces excreted in 24 hours ([7]; rat, oral, 0-24 h): 80.7%
share of ZB716 in feces excreted between 24 h to 72 h ([7]; rat, oral, 24-72 h): 10.2%
number of direct or indirect oxidative metabolites identified [8]: eight
share in urine accounted for in urinary excretion 72 hours after oral dosage ([9]; rat): less than 1%
share of ZB716 in urine excreted between 24 h to 72 h ([9]; rat, oral, 24-72 h): 34.4%
share of ZB716 in urine excreted before 24 h ([9]; rat, oral, before 24 h): about 63.7%
Structure (SMILES): C[C@]12CC[C@@H]3c4ccc(B(O)O)cc4C[C@@H](CCCCCCCCC[S+]([O-])CCCC(F)(F)C(F)(F)F)[C@H]3[C@@H]1CC[C@@H]2O (stereo partly drawn) [ZB716]
peak plasma concentration ([5]; mice and rats, oral administration at 10 mg/kg): > 100 ng/mL
